How the values were obtained:
[1] = target: T1, Solute carrier organic anion transporter family member 1A1 (Rattus norvegicus, UniProt P46720); test: TP_TRANSPORTER: transport activity; format: functional
T1 sequence (P46720 whole entry): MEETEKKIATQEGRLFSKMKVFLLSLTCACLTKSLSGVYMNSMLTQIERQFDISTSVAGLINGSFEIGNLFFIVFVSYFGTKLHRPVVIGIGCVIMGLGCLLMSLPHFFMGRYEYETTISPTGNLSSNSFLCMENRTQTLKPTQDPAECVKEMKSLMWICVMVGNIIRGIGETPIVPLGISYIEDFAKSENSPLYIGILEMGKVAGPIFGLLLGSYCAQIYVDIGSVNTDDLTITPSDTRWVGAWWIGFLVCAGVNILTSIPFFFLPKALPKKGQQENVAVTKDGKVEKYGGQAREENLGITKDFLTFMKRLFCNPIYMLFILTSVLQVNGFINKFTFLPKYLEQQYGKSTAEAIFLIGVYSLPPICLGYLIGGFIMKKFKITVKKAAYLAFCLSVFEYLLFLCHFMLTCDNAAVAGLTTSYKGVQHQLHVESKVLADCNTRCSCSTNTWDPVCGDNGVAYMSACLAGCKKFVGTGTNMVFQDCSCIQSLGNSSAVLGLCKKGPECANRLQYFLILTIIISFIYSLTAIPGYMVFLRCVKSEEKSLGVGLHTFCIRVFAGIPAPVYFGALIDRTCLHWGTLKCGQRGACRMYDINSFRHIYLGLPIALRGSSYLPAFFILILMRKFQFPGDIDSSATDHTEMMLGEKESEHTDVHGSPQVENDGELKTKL

Rattus norvegicus = test: TP_TRANSPORTER: Northern blot in vivo, kidney of SD rat; format: functional, organism-based; details: Sprague Dawley

Row | Activity [1] | Structure (SMILES) | Activity (Rattus norvegicus)
1 | is not a substrate [-] | CCCCC[C@H](O)/C=C/[C@@H]1[C@@H](C/C=C\CCCC(=O)O)[C@@H](O)C[C@H]1O [DINOPROST] | 
2 |  | C[C@]12CC[C@@H]3c4ccc(O)cc4CC[C@H]3[C@@H]1CC[C@@H]2O | is not a substrate [-]
